20 compounds from patent publication US8440708B2, “Triazole-substituted arylamides as P2X3 and P2X2/3 antagonists” (Roche Palo Alto LLC, priority 2007, dated 2013) can be followed below.

One assay addresses T1, rat P2X3 receptor (Rattus norvegicus, UniProt P49654).
T1 construct: expressed in transfected cells; host or cells: CHO-K1
T1 sequence (P49654 1-397): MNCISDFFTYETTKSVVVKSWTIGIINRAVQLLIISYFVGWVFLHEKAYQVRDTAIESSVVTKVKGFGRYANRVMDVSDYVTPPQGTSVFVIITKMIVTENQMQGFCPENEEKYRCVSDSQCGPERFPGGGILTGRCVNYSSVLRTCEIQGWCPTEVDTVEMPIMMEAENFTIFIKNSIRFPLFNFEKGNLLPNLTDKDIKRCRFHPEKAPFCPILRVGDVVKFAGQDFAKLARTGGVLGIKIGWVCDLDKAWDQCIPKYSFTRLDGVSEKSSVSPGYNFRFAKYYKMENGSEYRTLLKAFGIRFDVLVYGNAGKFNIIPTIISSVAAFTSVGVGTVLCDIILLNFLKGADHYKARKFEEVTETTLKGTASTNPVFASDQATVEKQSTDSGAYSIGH
The experiment in a line: P2X3/P2X2/3 FLIPR (Fluorometric Imaging Plate Reader) Assay, P2X3. It counts as cell-based. The conditions noted are these: CHO-K1 cells transfected with rat P2X3; agonist α,β-meATP 1 μM; Table 1; read-out: P2X3 pKi (converted). The protocol: (§1) P2X3/P2X2/3 FLIPR (Fluorometric Imaging Plate Reader) Assay
(§2) CHO-K1 cells were transfected with cloned rat P2X3 or human P2X2/3 receptor subunits and passaged in flasks. 18-24 hours before the FLIPR experiment, cells were released from their flasks, centrifuged, and resuspended in nutrient medium at 2.5×10^5 cells/ml. The cells were aliquoted into black-walled 96-well plates at a density of 50,000 cells/well and incubated overnight in 5% CO2 at 37° C. On the day of the experiment, cells were washed in FLIPR buffer (calcium- and magnesium-free Hank's balanced salt solution, 10 mM HEPES, 2 mM CaCl2, 2.5 mM probenecid; FB). Each well received 100 μl FB and 100 μl of the fluorescent dye Fluo-3 AM [2 μM final conc.]. After a 1 hour dye loading incubation at 37° C., the cells were washed 4 times with FB, and a final 75 μl/well FB was left in each well.
(§3) Test compounds (dissolved in DMSO at 10 mM and serially diluted with FB) or vehicle were added to each well (25 μl of a 4× solution) and allowed to equilibrate for 20 minutes at room temperature. The plates were then placed in the FLIPR and a baseline fluorescence measurement (excitation at 488 nm and emission at 510-570 nm) was obtained for 10 seconds before a 100 μl/well agonist or vehicle addition. The agonist was a 2× solution of α,β-meATP producing a final concentration of 1 μM (P2X3) or 5 μM (P2X2/3). Fluorescence was measured for an additional 2 minutes at 1 second intervals after agonist addition. A final addition of ionomycin (5 μM, final concentration) was made to each well of the FLIPR test plate to establish cell viability and maximum fluorescence of dye-bound cytosolic calcium. Peak fluorescence in response to the addition of α,β-meATP (in the absence and presence of test compounds) was measured and inhibition curves generated using nonlinear regression. PPADS, a standard P2X antagonist, was used as a positive control.

The next assay deals with T2, human P2X2/3 receptor (Homo sapiens, UniProt P56373+Q9UBL9).
T2 construct: expressed in transfected cells; host or cells: CHO-K1
T2 sequence (Q9UBL9 1-471): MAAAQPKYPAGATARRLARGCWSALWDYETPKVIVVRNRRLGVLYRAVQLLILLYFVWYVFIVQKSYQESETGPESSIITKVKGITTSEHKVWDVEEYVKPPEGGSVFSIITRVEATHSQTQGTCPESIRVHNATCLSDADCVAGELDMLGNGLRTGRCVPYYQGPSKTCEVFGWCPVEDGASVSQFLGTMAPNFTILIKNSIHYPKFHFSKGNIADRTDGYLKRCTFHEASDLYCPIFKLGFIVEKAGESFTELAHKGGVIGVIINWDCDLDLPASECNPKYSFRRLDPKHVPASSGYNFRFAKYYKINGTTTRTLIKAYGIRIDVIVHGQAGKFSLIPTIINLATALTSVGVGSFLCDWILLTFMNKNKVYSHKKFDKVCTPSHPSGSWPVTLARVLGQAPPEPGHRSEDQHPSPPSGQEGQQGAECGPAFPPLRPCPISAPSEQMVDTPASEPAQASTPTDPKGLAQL
T2 sequence (P56373 1-397): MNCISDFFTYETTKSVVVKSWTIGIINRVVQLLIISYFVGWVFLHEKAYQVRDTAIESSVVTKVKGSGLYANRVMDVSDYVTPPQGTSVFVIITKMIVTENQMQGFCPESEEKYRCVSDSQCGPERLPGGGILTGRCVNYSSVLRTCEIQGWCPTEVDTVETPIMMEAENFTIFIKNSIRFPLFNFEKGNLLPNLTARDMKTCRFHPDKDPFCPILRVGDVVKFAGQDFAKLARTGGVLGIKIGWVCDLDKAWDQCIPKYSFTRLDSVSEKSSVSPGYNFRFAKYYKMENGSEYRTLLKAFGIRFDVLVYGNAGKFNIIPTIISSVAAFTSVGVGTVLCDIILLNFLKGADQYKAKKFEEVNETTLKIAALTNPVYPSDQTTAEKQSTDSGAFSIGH
The experiment in a line: P2X3/P2X2/3 FLIPR (Fluorometric Imaging Plate Reader) Assay, P2X2/3. It counts as cell-based. The conditions noted are these: CHO-K1 cells transfected with human P2X2/3; agonist α,β-meATP 5 μM; Table 1; read-out: P2X2/3 pKi (converted). The protocol: as §1, §2, §3

As to `COCC(C)NC(=O)c1cc(-c2ccc(C)cc2)cc(-n2nncc2C)c1` (stereo not shown) [Compound 5, 4′-Methyl-5-(5-methyl-[1,2,3]triazol-1-yl)-biphenyl-3-carboxylic acid (2-methoxy-1-methyl-ethyl)-amide], the Ki on rat P2X3 receptor is 603 nM; at human P2X2/3 receptor it was 2820 nM. On the same counts, the results for `Cc1ccc(-c2cc(C(=O)N[C@@H](C)CO)cc(-n3cnnc3C(C)C)c2)cc1` [Compound 21, 5-(3-Isopropyl-[1,2,4]triazol-4-yl)-4′-methyl-biphenyl-3-carboxylic acid ((S)-2-hydroxy-1-methyl-ethyl)-amide] are 977 nM and 10000 nM. On the same counts, the results for `Cc1ccc(-c2cc(C(=O)NCc3cnc(C)cn3)cc(-c3ncn(C(C)C)n3)c2)cc1` [Compound 117, 5-(1-Isopropyl-1H-[1,2,4]triazol-3-yl)-4′-methyl-biphenyl-3-carboxylic acid (5-methyl-pyrazin-2-ylmethyl)-amide] are 11.5 nM and 398 nM. On the same counts, the results for `C[C@@H](CO)NC(=O)c1cc(-c2ccc(Cl)cn2)cc(-n2ncnc2C(F)(F)F)c1` [Compound 81, 3-(5-Chloro-pyridin-2-yl)-N-((S)-2-hydroxy-1-methyl-ethyl)-5-(5-trifluoromethyl-[1,2,4]triazol-1-yl)-benzamide] are 45.7 nM and 3890 nM. On to `COCC(C)NC(=O)c1cc(-c2ccc(C)cc2)cc(-n2nccn2)c1` (stereo not shown) [Compound 3, 4′-Methyl-5-[1,2,3]triazol-2-yl-biphenyl-3-carboxylic acid (2-methoxy-1-methyl-ethyl)-amide], for which the Ki at rat P2X3 receptor is 2950 nM.

With `Cc1cnc(CNC(=O)c2cc(-c3ccc(Cl)cn3)cc(-n3ncnc3C(F)F)c2)cn1` [Compound 77, 3-(5-Chloro-pyridin-2-yl)-5-(5-difluoromethyl-[1,2,4]triazol-1-yl)-N-(5-methyl-pyrazin-2-ylmethyl)-benzamide], the results for the Ki on rat P2X3 receptor and at human P2X2/3 receptor were 9.77 nM and 724 nM, respectively. On the same counts, the results for `CCn1nncc1-c1cc(C(=O)NC(C)c2cnccn2)cc(-c2ccc(C)cc2)c1` (stereo not shown) [Compound 38, 5-(3-Ethyl-3H-[1,2,3]triazol-4-yl)-4′-methyl-biphenyl-3-carboxylic acid (1-pyrazin-2-yl-ethyl)-amide] are 9.77 nM and 550 nM.

`Cc1ccc(-c2cc(C(=O)NC(C)c3cnccn3)cc(-n3ncnc3C(F)(F)F)c2)nc1` (stereo not shown) [Compound 98, 3-(5-Methyl-pyridin-2-yl)-N-(1-pyrazin-2-yl-ethyl)-5-(5-trifluoromethyl-[1,2,4]triazol-1-yl)-benzamide]: the Ki on rat P2X3 receptor was 2.24 nM; on human P2X2/3 receptor it was 45.7 nM. On the same counts, the results for `Cc1cnc(CNC(=O)c2cc(-c3ccc(Cl)cn3)cc(-n3ncnc3C(C)(C)C)c2)cn1` [Compound 84, 3-(5-tert-Butyl-[1,2,4]triazol-1-yl)-5-(5-chloro-pyridin-2-yl)-N-(5-methyl-pyrazin-2-ylmethyl)-benzamide] are 14.1 nM and 427 nM. `Cc1ccc(-c2cc(C(=O)NC(C)c3cnccn3)cc(-n3ncnc3C(C)(C)C)c2)nc1` (stereo not shown) [Compound 95, 3-(5-tert-Butyl-[1,2,4]triazol-1-yl)-5-(5-methyl-pyridin-2-yl)-N-(1-pyrazin-2-yl-ethyl)-benzamide]: the values for the Ki on rat P2X3 receptor and on human P2X2/3 receptor were 5.37 nM and 117 nM, respectively. For the compound `COC[C@@H](C)NC(=O)c1cc(-c2ccc(C)cc2)cc(-n2ncnc2C(C)C)c1` [Compound 15, 5-(5-Isopropyl-[1,2,4]triazol-1-yl)-4′-methyl-biphenyl-3-carboxylic acid ((R)-2-methoxy-1-methyl-ethyl)-amide], the Ki on rat P2X3 receptor was 10.2 nM; on human P2X2/3 receptor it was 813 nM. On the same counts, the results for `Cc1ccc(-c2cc(C(=O)N[C@@H](C)CO)cc(-n3ncnc3-c3ccccc3)c2)nc1` [Compound 144, N-((S)-2-Hydroxy-1-methyl-ethyl)-3-(5-methyl-pyridin-2-yl)-5-(5-phenyl-[1,2,4]triazol-1-yl)-benzamide] are 182 nM and 8910 nM. In the case of `COCC(C)NC(=O)c1cc(-c2ccc(C)cc2)cc(-n2ccnn2)c1` (stereo not shown) [Compound 1, 4′-Methyl-5-[1,2,3]triazol-1-yl-biphenyl-3-carboxylic acid (2-methoxy-1-methyl-ethyl)-amide], the Ki at rat P2X3 receptor was 1820 nM. For `Cc1ccc(-c2cc(C(=O)N[C@@H](C)CO)cc(-n3ncnc3CC(F)F)c2)nc1` [Compound 146, 3-[5-(2,2-Difluoro-ethyl)-[1,2,4]triazol-1-yl]-N-((S)-2-hydroxy-1-methyl-ethyl)-5-(5-methyl-pyridin-2-yl)-benzamide], the Ki at rat P2X3 receptor is 17.8 nM. `Cc1ccc(-c2cc(C(=O)NC(C)c3cnccn3)cc(-n3ncnc3C(F)(F)F)c2F)nc1` (stereo not shown) [Compound 170, 4-Fluoro-3-(5-methyl-pyridin-2-yl)-N-(1-pyrazin-2-yl-ethyl)-5-(5-trifluoromethyl-[1,2,4]triazol-1-yl)-benzamide]: the Ki at rat P2X3 receptor was 3.72 nM. The same measure, in the same setting: the same measure for `CCn1cnnc1-c1cc(C(=O)N[C@@H](C)CO)cc(-c2ccc(C)cc2)c1` [Compound 42, 5-(4-Ethyl-4H-[1,2,4]triazol-3-yl)-4′-methyl-biphenyl-3-carboxylic acid ((S)-2-hydroxy-1-methyl-ethyl)-amide]: 117 nM; for `Cc1ccc(-c2cc(C(=O)N[C@@H](C)CO)cc(-n3ncnc3C(F)(F)F)c2F)nc1` [Compound 165, 4-Fluoro-N-((S)-2-hydroxy-1-methyl-ethyl)-3-(5-methyl-pyridin-2-yl)-5-(5-trifluoromethyl-[1,2,4]triazol-1-yl)-benzamide]: 74.1 nM. As for `Cc1ccc(-c2cc(C(=O)NC3CC3)cc(-n3ncnc3C)c2)nc1` [Compound 68, N-Cyclopropyl-3-(5-methyl-pyridin-2-yl)-5-(5-methyl-[1,2,4]triazol-1-yl)-benzamide], the Ki on rat P2X3 receptor is 170 nM. Still for that read-out and setting: the same measure for `COCCc1nc(C)nn1-c1cc(C(=O)NCc2cnc(C)cn2)cc(-c2ccc(C)cn2)c1` [Compound 154, 3-[5-(2-Methoxy-ethyl)-3-methyl-[1,2,4]triazol-1-yl]-N-(5-methyl-pyrazin-2-ylmethyl)-5-(5-methyl-pyridin-2-yl)-benzamide]: 151 nM; for `COC[C@@H](C)NC(=O)c1cc(-c2ccc(C)cc2)cc(-n2nc(C)nc2C(C)C)c1` [Compound 27, 5-(5-Isopropyl-3-methyl-[1,2,4]triazol-1-yl)-4′-methyl-biphenyl-3-carboxylic acid ((R)-2-methoxy-1-methyl-ethyl)-amide]: 100 nM.
